From patent US20140249143A1, “Compounds And Methods For Enhancing Innate Immune Responses” (GlaxoSmithKline LLC, priority 2011, published 2014)

How the values were obtained:
[1] = test system: HCV genotype 1a subgenomic replicon; assay: Anti-Hepatitis C replicon assay, genotype 1a (luciferase); format: cell-based; settings: Hepatitis C virus; luciferase activity measured 48 hours later; read-out: HCV Genotype 1A Replicon pEC50 (converted)
How it was run: (§1)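 The 1b line is ET cells carrying the I389luc-ubi-neo/NS3-3′/ET replicon with adaptive mutations E1202G, T1280I and K1846T; the 1a line is an Apath replicon line modified with firefly luciferase. Cells were exposed 48 h to compound (final 0.03 pM–50 μM, 0.5-1% DMSO), read by Steady-Glo luciferase, and IC50 came from 10-point four-parameter logistic fits; cytotoxicity was read by CellTiter-Glo.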

[2] = test system: respiratory syncytial virus (RSV); assay: RSV plaque assay on HEp-2 cells; format: cell-based
Procedure: A broad spectrum of antiviral activity of Example 1 was accessed by testing it for potency against other viruses. (See FIG. 8). […] RSV (long form) was inoculated on the layer of HEp-2 cells at multiplicity of infection of <0.001. After 4 hour post infection, the inoculum was replaced with 0.3% agarose containing MEM and various concentration of Example 1 or IFNα. The cells were incubated for up to 5-6 days until the plaques were visible. The cells were then fixed with 3% formaldehyde and stained with neutral red for visualization.

STAT1 phosphorylation = STAT1 phosphorylation immunoblot in HCV replicon cells; format: cell-based
Procedure: IFNα (100 U/ml) and DMSO were included as controls. The total cell lysates were analyzed on a 4-20% SDS-PAGE gradient gel and followed by immunoblotting using anti-phopho STAT1 antibody (Cell Signaling). The level of actin was monitored as a loading control. The bands were visualized by the alkaline phosphatase activity conjugated with the secondary antibody (Promega) using ProtoBlot II AP System™ (Promega).

ISGs and cytokines mRNA = assay: Induction of ISGs in mice in vivo; set-up: species or system Balb/c mice
Procedure: Naive Balb/c mice were purchased from Charles River Laboratories (Wilmington, Mass.) and administered with murine IFNα2 (30 ug/kg) intravenously or administered with oral Example 1 (300 mg/kg in 30/70% solutol/polyethylene glycol 400). The mice were then euthanized by CO2 inhalation at 0.5, 2, 6, 8, and 24 hours for sample collection. Four mice per dose group were tested.
For RNA isolation, the blood was collected in an RNAprotect™ tube (Qiagen) and processed with RNeasy Protect™ animal blood kit (Qiagen) according to the manufacturer's protocol. To preserve RNA, 30-200 mg of tissue pieces were stored in RNAlater™ solution (Invitrogen) until use. For RNA isolation, the thawed tissues were homogenized using a TissueLyser™ system (Qiagen) and processed with RNeasy 96 Universal Tissue Kit™ (Qiagen) according to the manufacturer's protocol. To remove DNA contamination, on-plate DNase digestion was included during the RNA purification.
For real time RT-PCR, cDNA was made using High Capacity cDNA Reverse Transcription Kit™ (Applied Biosystems). Gene expression was measured using TaqMan Fast Universal PCR Master Mix™ (Applied Biosystems) and gene specific probes and murine primers in HT7900 FAST System™ (Invitrogen). As housekeeping genes, actin and GAPDH were used for normalization. Data was calculated by the ΔΔCt method and fold change determined compared to non-treated control samples.

human JAK1 = target: T1, human JAK1 (Homo sapiens, UniProt P23458); assay: JAK1 reconstitution in U4A and 2fGH cells (phosphor-STAT1 western blot, Taqman mRNA); format: cell-based
T1 construct: expressed in transfected cells; host or cells: U4A cells (JAK1-deficient derivative of the human fibroblast line 2fGH), transduced with a baculovirus mammalian expression system
Procedure: 2fGH and U4A cells were obtained from the Cleveland Clinic. 2fGH is a human fibroblast cell line and U4A cell line is a derivative 2fGH harboring a defect in JAK1 expression (Muller, et al., Nature 366, 129-135 (1993)). Green fluoroscent protein (GFP) or human JAK1 was transduced in U4A cells by baculovirus mammalian expression system. After 24 hours post transduction, the cells were treated with DMSO, Example 1 (10 μM), IFNα (100 U/ml), IFNβ (100 U/ml), or IFNγ (100 U/ml). Untransduced U4A cells and 2fGH cells were included as controls for 6 or 18 hours. The cells were harvested at indicated time points and used for detecting phosphor-STAT1 by western blot (FIG. 10, panel A) or for mRNA analysis by Taqman quantitation (FIG. 10, panel B).
The total cell lysates were analyzed on a 4-20% SDS-PAGE gradient gel and followed by immunoblotting using anti-phopho STAT1 antibody (Cell Signaling). The level of actin was monitored as a loading control. The bands were visualized by the alkaline phosphatase activity conjugated with the secondary antibody (Promega) using ProtoBlot II AP system (Promega).
Gene expression was measured using TaqMan Fast Universal PCR Master Mix (Applied Biosystems) and gene specific probes and murine primers in HT7900 FAST System (Invitrogen). As housekeeping genes, actin and GAPDH were used for normalization. Data was calculated by the ΔΔCt method and fold change determined compared to non-treated control samples.

[3] = test system: HCV genotype 1b subgenomic replicon; assay: Anti-Hepatitis C replicon assay, genotype 1b (luciferase); format: cell-based; settings: Hepatitis C virus; luciferase activity measured 48 hours later; read-out: HCV Genotype 1B Replicon pEC50 (converted)
How it was run: as §1

T1 sequence (P23458 whole entry): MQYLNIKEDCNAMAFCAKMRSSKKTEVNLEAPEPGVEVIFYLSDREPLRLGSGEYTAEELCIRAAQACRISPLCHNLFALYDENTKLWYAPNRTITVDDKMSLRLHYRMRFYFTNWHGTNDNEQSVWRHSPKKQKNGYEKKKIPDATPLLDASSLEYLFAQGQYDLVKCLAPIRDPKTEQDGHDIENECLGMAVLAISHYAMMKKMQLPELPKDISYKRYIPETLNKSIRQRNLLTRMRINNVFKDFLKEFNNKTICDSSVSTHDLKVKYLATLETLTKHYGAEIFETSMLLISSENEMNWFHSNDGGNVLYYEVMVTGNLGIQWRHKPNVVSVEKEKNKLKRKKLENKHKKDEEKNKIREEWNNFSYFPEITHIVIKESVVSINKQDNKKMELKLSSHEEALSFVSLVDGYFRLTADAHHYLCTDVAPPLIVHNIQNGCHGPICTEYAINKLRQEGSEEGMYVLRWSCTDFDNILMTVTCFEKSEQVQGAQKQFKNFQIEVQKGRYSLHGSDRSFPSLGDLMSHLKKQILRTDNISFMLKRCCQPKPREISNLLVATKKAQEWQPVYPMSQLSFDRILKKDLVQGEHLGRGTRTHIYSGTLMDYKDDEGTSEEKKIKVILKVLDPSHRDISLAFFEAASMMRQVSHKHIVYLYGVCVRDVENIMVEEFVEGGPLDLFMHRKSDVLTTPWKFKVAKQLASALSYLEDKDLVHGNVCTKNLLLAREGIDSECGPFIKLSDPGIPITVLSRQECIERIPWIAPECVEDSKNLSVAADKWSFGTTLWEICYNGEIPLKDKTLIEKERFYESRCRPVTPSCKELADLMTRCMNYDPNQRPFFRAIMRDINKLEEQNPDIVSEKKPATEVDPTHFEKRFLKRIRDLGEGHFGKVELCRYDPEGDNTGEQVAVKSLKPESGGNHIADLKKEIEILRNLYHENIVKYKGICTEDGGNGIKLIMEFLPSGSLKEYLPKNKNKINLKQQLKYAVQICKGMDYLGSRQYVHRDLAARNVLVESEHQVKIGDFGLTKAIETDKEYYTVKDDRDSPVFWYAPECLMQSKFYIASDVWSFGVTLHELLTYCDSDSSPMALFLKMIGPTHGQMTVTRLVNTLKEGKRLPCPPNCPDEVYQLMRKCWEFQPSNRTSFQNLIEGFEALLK

In the case of `FC(F)(F)c1cc(C(F)(F)F)c2ccc3nc(-c4nnco4)cn3c2n1` [Compound 1, 2-[2,4-bis(trifluoromethyl)imidazo[1,2-a]1,8-naphthyridin-8-yl]-1,3,4-oxadiazole], the EC50 [1] is reported as 50.1 nM, the RSV plaques ([2]; 1 μM, compared to DMSO-only) is reported as “reduced the number of plaques” and the RSV plaques ([2]; 5 μM) is reported as “no visible clear plaque”. The “time up to which phosphor-STAT1 status sustained” value (STAT1 phosphorylation; 2 uM) was “up to 24 h”, the STAT1 phosphorylation (STAT1 phosphorylation; Example 1 2 uM, IFNα 100 U/ml, 1 h, 6 h, 24 h) was “induced STAT1 phosphorylation” and the “up-regulation of ISGs at 24 hours” value (ISGs and cytokines mRNA; Example 1 oral 300 mg/kg, murine IFNα2 30 ug/kg intravenously) was “appeared to sustain”. The “mRNA for Mx1, OAS1A, OAS2, CXCL10, ISG15, and IL6” value (ISGs and cytokines mRNA; oral 300 mg/kg, Balb/c mice) was “marked increase”, the “CXCL9 expression in U4A cells transduced with JAK1” value (human JAK1; 10 μM) was “marked up-regulation” and the “OAS2 mRNA in parental cell line (2fGH)” value (human JAK1; 10 μM) was “marked increase”. The “activation of STAT1 in U4A cells transduced with JAK1” value (human JAK1; Example 1 10 μM, IFNα 100 U/ml) was “activation of STAT1 was observed”, the “p-STAT1 in U4A cells (JAK1 deficient) transduced with GFP” value (human JAK1; Example 1 10 μM, IFNα 100 U/ml) was “not present” and the EC50 [3] was 200 nM.
